ChEMBL document CHEMBL3853293, “Part-1: Design, synthesis and biological evaluation of novel bromo-pyrimidine analogs as tyrosine kinase inhibitors” (Eur J Med Chem, 2016)

Assays:
Bcr/Abl fusion protein = Bcr/Abl fusion protein (Homo sapiens, UniProt P00519); experiment: Inhibition of BRC/ABL1 (unknown origin) after 40 mins by ADP-Glo assay; type: protein assay
[1] = Cytotoxicity against human HCT116 cells assessed as reduction in cell viability after 96 hrs by MTT assay; details: HCT-116, 96 h
[2] = Cytotoxicity against human A549 cells assessed as reduction in cell viability after 96 hrs by MTT assay; details: A549, 96 h
[3] = Cytotoxicity against human U937 cells assessed as reduction in cell viability after 96 hrs by MTT assay; details: U-937, 96 h
[4] = Cytotoxicity against human K562 cells assessed as reduction in cell viability after 96 hrs by MTT assay; details: K562, 96 h
[5] = Cytotoxicity against human L02 cells assessed as reduction in cell viability after 96 hrs by MTT assay; type: toxicity, cell-based

Sequence of Bcr/Abl fusion protein (P00519 whole entry, the tested form may be a part): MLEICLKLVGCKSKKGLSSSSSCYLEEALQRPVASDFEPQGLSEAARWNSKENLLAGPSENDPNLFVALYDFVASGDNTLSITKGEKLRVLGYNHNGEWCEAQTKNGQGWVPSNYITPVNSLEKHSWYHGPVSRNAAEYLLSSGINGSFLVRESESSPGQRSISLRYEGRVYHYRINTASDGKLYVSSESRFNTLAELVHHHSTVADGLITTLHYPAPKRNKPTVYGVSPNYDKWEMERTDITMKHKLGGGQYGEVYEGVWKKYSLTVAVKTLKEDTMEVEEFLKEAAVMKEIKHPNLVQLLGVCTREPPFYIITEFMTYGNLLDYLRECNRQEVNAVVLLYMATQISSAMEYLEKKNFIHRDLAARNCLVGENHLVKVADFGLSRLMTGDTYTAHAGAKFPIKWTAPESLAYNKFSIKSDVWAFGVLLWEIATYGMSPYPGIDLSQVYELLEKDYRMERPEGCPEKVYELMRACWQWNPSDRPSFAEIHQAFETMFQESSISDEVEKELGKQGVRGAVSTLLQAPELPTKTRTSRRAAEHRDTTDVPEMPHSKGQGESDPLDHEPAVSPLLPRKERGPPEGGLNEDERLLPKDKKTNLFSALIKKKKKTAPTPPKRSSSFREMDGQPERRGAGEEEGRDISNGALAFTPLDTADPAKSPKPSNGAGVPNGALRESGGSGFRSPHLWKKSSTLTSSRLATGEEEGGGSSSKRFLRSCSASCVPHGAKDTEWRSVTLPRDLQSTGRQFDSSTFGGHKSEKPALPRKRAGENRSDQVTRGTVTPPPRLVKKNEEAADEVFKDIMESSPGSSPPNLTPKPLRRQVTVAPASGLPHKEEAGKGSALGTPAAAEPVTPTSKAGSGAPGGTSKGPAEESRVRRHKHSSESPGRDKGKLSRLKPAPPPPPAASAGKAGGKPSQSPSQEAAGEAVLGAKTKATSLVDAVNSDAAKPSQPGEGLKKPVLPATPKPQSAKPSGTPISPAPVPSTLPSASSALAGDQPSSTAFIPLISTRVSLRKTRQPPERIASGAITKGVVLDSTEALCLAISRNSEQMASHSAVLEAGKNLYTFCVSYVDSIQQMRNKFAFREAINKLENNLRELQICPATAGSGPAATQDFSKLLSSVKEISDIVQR
Sequence of Bcr/Abl fusion protein (P11274 whole entry, further chain, the tested form may be a part): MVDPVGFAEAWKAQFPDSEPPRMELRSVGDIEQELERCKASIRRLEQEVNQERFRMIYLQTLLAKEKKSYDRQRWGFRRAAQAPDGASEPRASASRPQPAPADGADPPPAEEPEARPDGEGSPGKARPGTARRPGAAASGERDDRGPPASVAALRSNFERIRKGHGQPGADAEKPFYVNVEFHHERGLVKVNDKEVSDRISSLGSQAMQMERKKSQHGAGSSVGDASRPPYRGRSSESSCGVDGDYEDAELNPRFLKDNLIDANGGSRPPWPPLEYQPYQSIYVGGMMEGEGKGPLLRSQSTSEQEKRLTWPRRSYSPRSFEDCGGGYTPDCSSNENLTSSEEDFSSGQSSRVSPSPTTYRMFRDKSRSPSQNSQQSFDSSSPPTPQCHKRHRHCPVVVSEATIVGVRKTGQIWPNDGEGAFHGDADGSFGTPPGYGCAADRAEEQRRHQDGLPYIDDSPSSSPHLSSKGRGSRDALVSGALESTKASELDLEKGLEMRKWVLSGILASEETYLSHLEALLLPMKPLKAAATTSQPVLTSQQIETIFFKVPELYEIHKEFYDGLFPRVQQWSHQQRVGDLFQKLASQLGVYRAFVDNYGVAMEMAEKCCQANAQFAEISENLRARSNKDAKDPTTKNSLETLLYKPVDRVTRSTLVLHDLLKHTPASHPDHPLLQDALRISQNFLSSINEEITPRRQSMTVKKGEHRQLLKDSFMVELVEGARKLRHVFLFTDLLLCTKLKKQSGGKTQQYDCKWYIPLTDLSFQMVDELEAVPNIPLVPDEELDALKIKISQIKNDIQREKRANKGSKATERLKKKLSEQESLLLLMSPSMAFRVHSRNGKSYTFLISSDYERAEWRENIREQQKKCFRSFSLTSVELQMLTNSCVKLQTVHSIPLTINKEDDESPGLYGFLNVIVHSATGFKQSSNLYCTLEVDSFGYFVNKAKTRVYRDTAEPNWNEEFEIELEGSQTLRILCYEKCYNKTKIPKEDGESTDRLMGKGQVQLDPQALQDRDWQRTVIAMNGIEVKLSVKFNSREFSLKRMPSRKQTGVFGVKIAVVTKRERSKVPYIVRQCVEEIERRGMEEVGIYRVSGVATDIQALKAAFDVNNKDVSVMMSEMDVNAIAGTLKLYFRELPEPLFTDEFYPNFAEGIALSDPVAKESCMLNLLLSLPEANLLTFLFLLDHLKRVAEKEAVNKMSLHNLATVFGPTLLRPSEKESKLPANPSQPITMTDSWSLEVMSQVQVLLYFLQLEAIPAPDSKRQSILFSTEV

SMILES	IC50 (Bcr/Abl fusion protein) [µM]	IC50 [1]	IC50 [2]	IC50 [3]	IC50 [4]	IC50 at 96 h [5] [µM]
O=S(=O)(c1ccc(F)cc1)N1CCN(c2nc(Cl)ncc2Br)CC1	122					
O=C(c1cc(I)ccc1Cl)N1CCN(c2nc(Cl)ncc2Br)CC1	16.2	6.51 µM	12.2 µM	12.2 µM	8.67 µg/mL	> 40
O=C(c1ccc(Cl)cc1[N+](=O)[O-])N1CCN(c2nc(Cl)ncc2Br)CC1	2.58	7.34 µM	12.1 µM	14.3 µM	10.2 µg/mL	> 40
Cc1noc(C)c1S(=O)(=O)N1CCN(c2nc(N3CCOCC3)ncc2Br)CC1	> 500	8.34 µM	10.5 µM	11.7 µM	9.45 µg/mL	> 40
O=S(=O)(c1cc(Cl)sc1Cl)N1CCN(c2nc(N3CCOCC3)ncc2Br)CC1	> 500	9.23 µM	9.56 µM	13.6 µM	10.1 µg/mL	> 40
Cc1ccc(S(=O)(=O)N2CCN(c3nc(Cl)ncc3Br)CC2)cc1	58					
O=S(=O)(C1CC1)N1CCN(c2nc(Cl)ncc2Br)CC1	> 500					
CS(=O)(=O)N1CCN(c2nc(N3CCOCC3)ncc2Br)CC1		8.11 µM	9.71 µM	11.6 µM	12 µM	> 40
Cc1nc(Nc2ncc(C(=O)Nc3c(C)cccc3Cl)s2)cc(N2CCN(CCO)CC2)n1 [DASATINIB]		5.23 µM	8.37 µM	10.2 µM	12 µM	> 40
CCCS(=O)(=O)N1CCN(c2nc(Cl)ncc2Br)CC1	> 500					
N#Cc1ccc(S(=O)(=O)N2CCN(c3nc(N4CCOCC4)ncc3Br)CC2)cc1	> 500	8.33 µM	12.4 µM	12.2 µM	10.5 µg/mL	> 40
O=C(c1ccc(Cl)cc1[N+](=O)[O-])N1CCN(c2nc(N3CCOCC3)ncc2Br)CC1	> 500	6.43 µM	9.76 µM	13.1 µM	13.2 µM	> 40
O=S(=O)(c1ccc(F)cc1)N1CCN(c2nc(N3CCOCC3)ncc2Br)CC1	4.52	8.11 µM	9.34 µM	11.1 µM	9.32 µg/mL	> 40
O=C(c1c(F)cccc1F)N1CCN(c2nc(Cl)ncc2Br)CC1	2.65	4.97 µg/mL	12.6 µM	12.4 µM	10.2 µg/mL	> 40

Further lines, with some results ahead:

IC50 (Bcr/Abl fusion protein) [µM]	SMILES	IC50 [1]	IC50 [2]	IC50 [3]	IC50 [4]	IC50 at 96 h [5] [µM]
0.024	O=C(c1ccc(C(F)(F)F)cc1)N1CCN(c2nc(N3CCOCC3)ncc2Br)CC1	4.45 µg/mL	6.44 µg/mL	9.88 µg/mL	9.17 µg/mL	> 40
0.56	Cc1noc(C)c1S(=O)(=O)N1CCN(c2nc(Cl)ncc2Br)CC1					
2.28	O=C(c1cc(Cl)ccc1Cl)N1CCN(c2nc(Cl)ncc2Br)CC1	8.23 µM	10.5 µM	11.3 µM	9.22 µg/mL	> 40
0.44	O=S(=O)(c1ccc2ccccc2c1)N1CCN(c2nc(N3CCOCC3)ncc2Br)CC1	9.56 µM	8.23 µg/mL	15.1 µM	10.3 µg/mL	> 40
2.25	O=S(=O)(c1cc(C(F)(F)F)cc(C(F)(F)F)c1)N1CCN(c2nc(Cl)ncc2Br)CC1					
0.385	COC(=O)NC(C(=O)N1CCN(c2nc(Cl)ncc2Br)CC1)C(C)C (stereo not drawn)					
0.019	O=S(=O)(c1ccc(C(F)(F)F)cc1)N1CCN(c2nc(N3CCOCC3)ncc2Br)CC1	4.32 µg/mL	6.25 µg/mL	7.54 µg/mL	9.95 µg/mL	> 40
0.019	O=C(c1ccc(F)cc1)N1CCN(c2nc(Cl)ncc2Br)CC1	8.11 µM	7.34 µg/mL	9.12 µg/mL	8.82 µg/mL	> 40
0.64	O=S(=O)(c1ccc(-c2ccccc2)cc1)N1CCN(c2nc(Cl)ncc2Br)CC1					
1.15	CC(C)(C)c1ccc(S(=O)(=O)N2CCN(c3nc(N4CCOCC4)ncc3Br)CC2)cc1	8.67 µM	12.4 µM	12.8 µM	9.09 µg/mL	> 40
0.0226	O=[N+]([O-])c1cc(C(F)(F)F)ccc1S(=O)(=O)N1CCN(c2nc(Cl)ncc2Br)CC1					
0.0206	O=[N+]([O-])c1cc(C(F)(F)F)ccc1S(=O)(=O)N1CCN(c2nc(N3CCOCC3)ncc2Br)CC1	4.02 µg/mL	6.65 µg/mL	7.14 µg/mL	9.65 µg/mL	> 40
1.98	Cc1ccc(S(=O)(=O)N2CCN(c3nc(N4CCOCC4)ncc3Br)CC2)cc1	7.65 µM	9.23 µM	10.5 µM	10.3 µg/mL	> 40
0.89	O=C(c1c(F)cccc1F)N1CCN(c2nc(N3CCOCC3)ncc2Br)CC1	5.56 µM	7.17 µg/mL	13.1 µM	11.2 µg/mL	> 40
1.69	Cc1ccc(S(=O)(=O)N2CCN(c3nc(N4CCOCC4)ncc3Br)CC2)c(C)c1	8.56 µM	11.2 µM	12.8 µM	9.09 µg/mL	> 40
0.255	CS(=O)(=O)N1CCN(c2nc(Cl)ncc2Br)CC1					
0.024	O=C(c1ccc(F)cc1)N1CCN(c2nc(N3CCOCC3)ncc2Br)CC1	4.56 µg/mL	8.67 µM	9.89 µg/mL	9.45 µg/mL	> 40
1.44	O=C(c1cc(Cl)c(Cl)c(Cl)n1)N1CCN(c2nc(Cl)ncc2Br)CC1					
0.019	O=C(c1ccc(C(F)(F)F)cc1)N1CCN(c2nc(Cl)ncc2Br)CC1	4.92 µg/mL	8.23 µg/mL	7.12 µg/mL	10.3 µg/mL	> 40
0.32	O=S(=O)(c1ccc(-c2ccccc2)cc1)N1CCN(c2nc(N3CCOCC3)ncc2Br)CC1	9.12 µM	10.1 µM	11.2 µM	9.32 µg/mL	> 40
0.22	O=S(=O)(C1CC1)N1CCN(c2nc(N3CCOCC3)ncc2Br)CC1	8.11 µM	12 µM	12.1 µM	9.12 µg/mL	> 40
